Measured values reported in patent publication US20240132489A1, “AROMATIC HETEROCYCLIC COMPOUND, PHARMACEUTICAL COMPOSITION, AND USE THEREOF” (GT APEIRON THERAPEUTICS LIMITED, priority 2020, published 2024).
Counter-ions that a name gives are not always drawn.

How the values were obtained:
[1] = molecular target: CDK7/cyclin H/MAT1 complex (Homo sapiens (Human), UniProt P50613); test: In vitro enzymatic inhibitory activity test, CDK7; type: biochemical; settings: Caliper mobility shift, 180 min at 27° C.
Chain of CDK7/cyclin H/MAT1 complex (P50613 whole entry, species assumed, the tested form may be a part): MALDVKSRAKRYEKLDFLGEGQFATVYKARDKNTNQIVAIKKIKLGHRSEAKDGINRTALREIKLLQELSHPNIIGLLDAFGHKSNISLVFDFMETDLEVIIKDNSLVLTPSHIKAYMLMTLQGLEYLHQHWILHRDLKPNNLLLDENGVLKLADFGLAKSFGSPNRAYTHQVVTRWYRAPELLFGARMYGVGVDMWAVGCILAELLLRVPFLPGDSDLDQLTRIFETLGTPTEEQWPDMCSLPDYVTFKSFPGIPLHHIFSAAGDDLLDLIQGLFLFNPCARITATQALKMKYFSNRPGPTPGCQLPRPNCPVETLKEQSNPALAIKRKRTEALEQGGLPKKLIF
Chain of CDK7/cyclin H/MAT1 complex (P51946 whole entry partner, species assumed, the tested form may be a part): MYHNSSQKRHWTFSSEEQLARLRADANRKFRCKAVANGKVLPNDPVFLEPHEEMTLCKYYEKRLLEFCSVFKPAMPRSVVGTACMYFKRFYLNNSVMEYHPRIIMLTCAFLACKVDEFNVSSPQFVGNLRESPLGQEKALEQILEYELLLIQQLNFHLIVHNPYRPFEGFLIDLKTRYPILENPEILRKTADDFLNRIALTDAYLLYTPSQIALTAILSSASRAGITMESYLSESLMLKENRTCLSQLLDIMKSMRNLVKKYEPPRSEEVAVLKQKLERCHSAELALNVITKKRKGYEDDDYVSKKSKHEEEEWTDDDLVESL
Chain of CDK7/cyclin H/MAT1 complex (P51948 whole entry partner, species assumed, the tested form may be a part): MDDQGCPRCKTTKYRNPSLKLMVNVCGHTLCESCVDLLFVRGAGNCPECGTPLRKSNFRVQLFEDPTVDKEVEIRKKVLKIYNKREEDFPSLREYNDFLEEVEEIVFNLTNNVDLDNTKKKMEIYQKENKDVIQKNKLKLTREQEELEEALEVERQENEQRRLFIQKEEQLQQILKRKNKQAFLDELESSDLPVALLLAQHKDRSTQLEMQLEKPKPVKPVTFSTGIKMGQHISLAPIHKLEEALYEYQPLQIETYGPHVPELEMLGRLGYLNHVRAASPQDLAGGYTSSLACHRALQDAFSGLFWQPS

[2] = molecular target: CDK12(aa686-1082)/cyclin K complex (Homo sapiens (Human), UniProt Q9NYV4); test: In vitro enzymatic inhibitory activity test, CDK12; type: biochemical; settings: Caliper mobility shift, 180 min at 27° C.
Chain of CDK12(aa686-1082)/cyclin K complex (Q9NYV4 686-1082, species assumed): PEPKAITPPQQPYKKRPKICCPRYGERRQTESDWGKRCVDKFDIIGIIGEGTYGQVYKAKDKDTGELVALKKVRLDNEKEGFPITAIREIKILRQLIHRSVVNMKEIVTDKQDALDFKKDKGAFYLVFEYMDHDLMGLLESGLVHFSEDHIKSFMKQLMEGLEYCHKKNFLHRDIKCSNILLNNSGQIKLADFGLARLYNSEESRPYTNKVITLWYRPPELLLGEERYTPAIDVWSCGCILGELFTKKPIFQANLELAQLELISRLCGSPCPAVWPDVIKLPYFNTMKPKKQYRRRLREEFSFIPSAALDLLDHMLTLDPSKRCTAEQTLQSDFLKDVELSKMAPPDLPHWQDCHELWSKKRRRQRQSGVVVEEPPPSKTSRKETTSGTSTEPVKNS
Chain of CDK12(aa686-1082)/cyclin K complex (O75909 whole entry partner, species assumed, the tested form may be a part): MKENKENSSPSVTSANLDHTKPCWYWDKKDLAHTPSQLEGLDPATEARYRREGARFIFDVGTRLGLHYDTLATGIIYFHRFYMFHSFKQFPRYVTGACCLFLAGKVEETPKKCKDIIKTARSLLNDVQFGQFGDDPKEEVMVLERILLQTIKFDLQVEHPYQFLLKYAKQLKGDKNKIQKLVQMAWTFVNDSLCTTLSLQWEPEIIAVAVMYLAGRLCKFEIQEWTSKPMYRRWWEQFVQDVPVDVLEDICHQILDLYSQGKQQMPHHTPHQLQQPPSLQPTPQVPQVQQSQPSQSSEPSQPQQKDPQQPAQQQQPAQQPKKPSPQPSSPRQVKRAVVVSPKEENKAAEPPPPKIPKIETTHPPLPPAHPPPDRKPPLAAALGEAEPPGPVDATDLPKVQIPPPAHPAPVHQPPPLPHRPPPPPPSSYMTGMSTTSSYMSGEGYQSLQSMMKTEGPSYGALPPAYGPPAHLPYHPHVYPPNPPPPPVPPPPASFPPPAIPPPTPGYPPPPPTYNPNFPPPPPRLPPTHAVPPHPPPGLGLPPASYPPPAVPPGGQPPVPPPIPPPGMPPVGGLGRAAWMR

[3] = molecular target: CDK9/CyclinT1 (Homo sapiens (Human), UniProt P50750); test: In vitro enzymatic inhibitory activity test, CDK9; type: biochemical; settings: Caliper mobility shift, 180 min at 27° C.
Chain of CDK9/CyclinT1 (P50750 whole entry, species assumed): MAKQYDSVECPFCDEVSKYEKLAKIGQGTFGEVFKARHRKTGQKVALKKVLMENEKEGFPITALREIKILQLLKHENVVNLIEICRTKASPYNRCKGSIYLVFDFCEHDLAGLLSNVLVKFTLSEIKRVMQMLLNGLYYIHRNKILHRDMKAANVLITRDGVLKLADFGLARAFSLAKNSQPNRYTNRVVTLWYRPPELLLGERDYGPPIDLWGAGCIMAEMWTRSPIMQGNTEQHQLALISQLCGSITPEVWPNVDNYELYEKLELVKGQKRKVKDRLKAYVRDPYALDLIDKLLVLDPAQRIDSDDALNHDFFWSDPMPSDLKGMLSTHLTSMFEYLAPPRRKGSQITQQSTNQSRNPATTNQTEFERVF
Chain of CDK9/CyclinT1 (O60563 whole entry partner, species assumed): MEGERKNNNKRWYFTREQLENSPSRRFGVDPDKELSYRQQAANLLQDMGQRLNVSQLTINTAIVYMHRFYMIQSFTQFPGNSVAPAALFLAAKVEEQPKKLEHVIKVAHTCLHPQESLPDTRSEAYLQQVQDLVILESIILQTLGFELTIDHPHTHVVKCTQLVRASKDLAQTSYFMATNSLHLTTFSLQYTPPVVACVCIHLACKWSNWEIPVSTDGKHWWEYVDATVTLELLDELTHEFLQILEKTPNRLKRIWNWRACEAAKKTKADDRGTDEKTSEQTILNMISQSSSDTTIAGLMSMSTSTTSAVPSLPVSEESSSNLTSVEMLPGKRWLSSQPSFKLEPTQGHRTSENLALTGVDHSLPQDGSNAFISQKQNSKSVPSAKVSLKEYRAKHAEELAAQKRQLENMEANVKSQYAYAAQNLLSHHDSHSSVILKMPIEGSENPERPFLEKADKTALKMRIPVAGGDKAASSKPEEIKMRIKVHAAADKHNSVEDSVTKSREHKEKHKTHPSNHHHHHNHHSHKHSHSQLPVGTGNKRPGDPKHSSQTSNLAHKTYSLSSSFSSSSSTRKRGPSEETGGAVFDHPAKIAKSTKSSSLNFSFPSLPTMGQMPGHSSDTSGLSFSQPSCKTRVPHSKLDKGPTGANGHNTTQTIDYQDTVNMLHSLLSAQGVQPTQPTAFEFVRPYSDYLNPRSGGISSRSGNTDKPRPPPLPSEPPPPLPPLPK

[4] = system: HCC70 cells; test: Cell bioactivity detection (CyQuant), HCC70; type: cell-based; settings: Homo sapiens, HCC70, 72 h, human breast cancer cells HCC70, 72 hours
How it was run: (§1)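 A2780 or HCC70 cells (2000/well, RPMI 1640 + 10% FBS) were seeded overnight, then treated for 72 h at 37° C, 5% CO2 with compound: top 10 μM, 1:4 dilutions, 9 points, 0.2% DMSO. Viable cell number was measured by CyQuant Direct nucleic-acid staining (≥60 min, 37° C) on an Acumen reader at 488 nm excitation, and IC50 was calculated.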

[5] = molecular target: CDK2/cyclin E1 complex (Homo sapiens (Human), UniProt P24941); test: In vitro enzymatic inhibitory activity test, CDK2; type: biochemical; settings: Caliper mobility shift, 180 min at 27° C.
[6] = system: A2780 cells; test: Cell bioactivity detection (CyQuant), A2780; type: cell-based, human; settings: Homo sapiens, A2780, 72 h, ovarian carcinoma cells A2780, 72 hours
How it was run: as §1

| SMILES | IC50 [1] [nM] | IC50 [2] [nM] | IC50 [3] [nM] | IC50 [4] [nM] | IC50 [5] [nM] | IC50 [6] [nM] |
| --- | --- | --- | --- | --- | --- | --- |
| FC(F)(F)c1cnc(N[C@H]2CCCNC2)nc1-c1c[nH]c2nc(N3CCOC[C@@H]3C(F)(F)F)ccc12 [Compound 33, N—((S)-piperidin-3-yl)-5-(trifluoromethyl)-4-(6-((R)-3-(trifluoromethyl)morpholinyl)-1H-pyrrol[2,3-b]pyridin-3-yl)pyrimidine-2-amine] | 46.8 | 2010 | 4430 | 12 | 3230 | 2.4 |
| O=S1(=O)CCN(c2ccc3c(-c4nc(N[C@H]5CCCNC5)ncc4C(F)(F)F)c[nH]c3n2)CC1 [Compound 25, (S)-4-(3-(2-(piperidine-3-amino)-5-(trifluoromethyl)pyrimidin-4-yl)-1H-pyrrolo[2,3-b]pyridin-6-yl)thiomorpholine-1,1-dioxide] | 6.5 | 277 | 402 | 11 | 1040 | 7.9 |
| FC(F)(F)c1cnc(N[C@H]2CCCNC2)nc1-c1c[nH]c2nc(N3CCC4(COC4)C3)ccc12 [Compound 8, (S)-4-(6-(2-oxa-6-azaspiro[3.4]octan-6-yl)-1H-pyrrolo[2,3-b]pyridin-3-yl)-N-(piperidin-3-yl)-5-(trifluoromethyl)pyrimidine-2-amine] | 40.3 | 9320 | 15900 | 16 | 17500 | 19.1 |
| FC(F)(F)c1cnc(N[C@H]2CCCNC2)nc1-c1c[nH]c2cc(N3CCCC3)ccc12 [Compound 101, (S)—N-(Piperidin-3-Yl)-4-(6-(Pyrrolidin-1-Yl)-1H-Indol-3-Yl)-5-(Trifluoromethyl)Pyrimidine-2-Amine, reference compound] | 28.5 | 1600 | 4610 | 232 | > 10000 | 157 |
| FC(F)(F)c1cnc(N[C@H]2CCCNC2)nc1-c1c[nH]c2nc(C3=CCCCO3)ccc12 [Compound 109, (S)-4-(6-(3,4-dihydropyran-6-yl)-1H-pyrrol[2,3-b]pyridin-3-yl)-N-(piperidin-3-yl)-5-(trifluoromethyl)pyrimidine-2-amine] | 5.62 | 1000 | 2870 | 3.98 | 2150 | 5.61 |
| C[C@@H]1OCC2(CCN(c3ccc4c(-c5nc(N[C@H]6CCCNC6)ncc5C(F)(F)F)c[nH]c4n3)CC2)[C@@H]1N [Compound 12, (3S,4S)-3-methyl-8-(3-(2-(((S)-piperidin-3-yl)amino)-5-(trifluoromethyl)pyrimidin-4-yl)-1H-pyrrol[2,3-b]pyridin-6-yl)-2-oxa-8-azaspiro[4.5]decan-4-amine] | 17.4 | 1170 | 2790 | 69 | 3790 | 90.1 |
| FC(F)(F)c1cnc(N[C@H]2CCCNC2)nc1-c1c[nH]c2nc(N3CC4(CCOC4)C3)ccc12 [Compound 11, (S)-4-(6-(6-oxa-2-azaspiro[3.4]octan-2-yl)-1H-pyrrolo[2,3-b]pyridin-3-yl)-N-(piperidin-3-yl)-5-(trifluoromethyl)pyrimidine-2-amine] | 27.8 | 1950 | 4230 | 48 | 6450 | 41.2 |
| FC(F)(F)c1cnc(N[C@H]2CCCNC2)nc1-c1c[nH]c2nc(N3C[C@H]4C[C@@H]3CO4)ccc12 [Compound 2, 4-(6-((1R,4R)-2-oxa-5-azabicyclo[2.2.1]heptan-5-yl)-1H-pyrrolo[2,3-b]pyridin-3-yl)-N—((S)-piperidin-3-yl)-5-(trifluoromethyl)pyrimidine-2-amine] | 10.4 | 1840 | 1040 | 15 | 4380 | 16 |
| C[C@H]1COCCN1c1ccc2c(-c3nc(N[C@H]4CCCNC4)ncc3C(F)(F)F)c[nH]c2n1 [Compound 18, 4-(6-((S)-3-methylmorpholinyl)-1H-pyrrolo[2,3-b]pyridin-3-yl)-N—((S)-piperidin-3-yl)-5-(trifluoromethyl)pyrimidine-2-amine] | 9.47 | 2290 | 2870 | 6.7 | 6560 | 7.2 |
| FC(F)(F)c1cnc(N[C@H]2CCCNC2)nc1-c1c[nH]c2nc(N3CC4COCC4C3)ccc12 (stereo partly drawn) [Compound 5, N—((S)-piperidin-3-yl)-4-(6-(tetrahydro-1H-furan[3,4-c]pyrrol-5(3H)-yl)-1H-pyrrolo[2,3-b]pyridin-3-yl)-5-(trifluoromethyl)pyrimidine-2-amine] | 12.1 | 1020 | 907 | 19 | 2250 | 17 |
| FC(F)(F)c1cnc(N[C@H]2CCCNC2)nc1-c1c[nH]c2nc(N3CCOCC3)ccc12 [Compound 1, (S)-4-(6-morpholinyl-1H-pyrrolo[2,3-b]pyridin-3-yl)-N-(piperidin-3-yl)-5-(trifluoromethyl)pyrimidine-2-amine] | 13.4 | 1460 | 1180 | 14 | 3020 | 14 |
| FC(F)(F)c1cnc(N[C@H]2CCCNC2)nc1-c1c[nH]c2nc(N3CCCOCC3)ccc12 [Compound 22, (S)-4-(6-(1,4-oxazepan-4-yl)-1H-pyrrolo[2,3-b]pyridin-3-yl)-N-(piperidin-3-yl)-5-(trifluoromethyl)pyrimidine-2-amine] | 7.05 | 783 | 2860 | 10.7 | 3050 | 4.7 |
| FC(F)(F)c1cnc(N[C@H]2CCCNC2)nc1-c1c[nH]c2nc(N3C[C@@H]4C[C@H]3CO4)ccc12 [Compound 13, 4-(6-((1S,4S)-2-oxa-5-azabicyclo[2.2.1]heptan-5-yl)-1H-pyrrolo[2,3-b]pyridin-3-yl)-N—((S)-piperidin-3-yl)-5-(trifluoromethyl)pyrimidine-2-amine] | 7.05 | 2640 | 3430 | 29 | 2670 | 35.2 |
| FC(F)(F)c1cnc(N[C@H]2CCCNC2)nc1-c1c[nH]c2nc(N3CCC4(CCO4)CC3)ccc12 [Compound 16, (S)-4-(6-(1-oxa-7-azaspiro[3.5]nonan-7-yl)-1H-pyrrolo[2,3-b]pyridin-3-yl)-N-(piperidin-3-yl)-5-(trifluoromethyl)pyrimidine-2-amine] | 10.8 | 1230 | 3580 | 13 | 2880 | 11 |
| FC(F)(F)c1cnc(N[C@H]2CCCNC2)nc1-c1c[nH]c2nc(N3CCCC4(CCOCC4)C3)ccc12 [Compound 10, (S)-4-(6-(9-oxa-2-azaspiro[5.5]undecan-2-yl)-1H-pyrrolo[2,3-b]pyridin-3-yl)-N-(piperidin-3-yl)-5-(trifluoromethyl)pyrimidine-2-amine] | 27 | 823 | 4010 | 102 | 2090 | 109 |
| C[C@H]1COCCN1c1nc2[nH]cc(-c3nc(N[C@H]4CCCNC4)ncc3C(F)(F)F)c2cc1F [Compound 75, 4-(5-fluoro-6-((S)-3-methylmorpholinyl)-1H-pyrrol[2,3-b]pyridin-3-yl)-N—((S)-piperidin-3-yl)-5-(trifluoromethyl)pyrimidine-2-amine formate] | 8.5 | 3340 | 5930 | 9.2 | 2380 | 7.4 |
